What was measured:
Format in all cases: functional
[1] = Cytotoxicity against human HOP62 cells assessed as cell growth at 10^-8 M after 24 hrs by SRB assay; settings: HOP-62, 24 h, read-out: Activity
[2] = Cytotoxicity against human HOP62 cells after 24 hrs by SRB assay; settings: HOP-62, 24 h
[3] = Cytotoxicity against human UO31 cells assessed as cell growth at 10^-5 M after 24 hrs by SRB assay; settings: UO-31, 24 h, read-out: Activity
MDA-MB-435 = assay: Cytotoxicity against human MDA-MB-435 cells assessed as cell growth at 10^-7 M after 24 hrs by SRB assay; settings: MDA-MB-435, 24 h, read-out: Activity
HT-29 = assay: Cytotoxicity against human HT-29 cells assessed as cell growth at 10^-6 M after 24 hrs by SRB assay; settings: HT-29, 24 h, read-out: Activity
[4] = Cytotoxicity against human COLO205 cells assessed as cell growth at 10^-6 M after 24 hrs by SRB assay; settings: COLO 205, 24 h, read-out: Activity
[5] = Cytotoxicity against human OVCAR8 cells assessed as cell growth at 10^-5 M after 24 hrs by SRB assay; settings: OVCAR-8, 24 h, read-out: Activity
[6] = Cytotoxicity against human SW620 cells assessed as cell growth at 10^-4 M after 24 hrs by SRB assay; settings: SW-620, 24 h, read-out: Activity
[7] = Cytotoxicity against human SNB19 cells assessed as cell growth at 10^-7 M after 24 hrs by SRB assay; settings: SNB-19, 24 h, read-out: Activity
[8] = Cytotoxicity against human UO31 cells assessed as cell growth at 10^-8 M after 24 hrs by SRB assay; settings: UO-31, 24 h, read-out: Activity
M14 [9] = assay: Cytotoxicity against human M14 cells assessed as cell growth at 10^-7 M after 24 hrs by SRB assay; settings: M14, 24 h, read-out: Activity
NCI-H322M = assay: Cytotoxicity against human NCI-H322M cells assessed as cell growth at 10^-8 M after 24 hrs by SRB assay; settings: read-out: Activity
NCI-H460 [10] = assay: Cytotoxicity against human NCI-H460 cells assessed as cell growth at 10^-7 M after 24 hrs by SRB assay; settings: NCI-H460, 24 h, read-out: Activity
K562 [11] = assay: Cytotoxicity against human K562 cells assessed as cell growth at 10^-8 M after 24 hrs by SRB assay; settings: K562, 24 h, read-out: Activity
[12] = Cytotoxicity against human SF295 cells assessed as cell growth at 10^-5 M after 24 hrs by SRB assay; settings: SF-295, 24 h, read-out: Activity
M14 [13] = assay: Cytotoxicity against human M14 cells assessed as cell growth at 10^-8 M after 24 hrs by SRB assay; settings: M14, 24 h, read-out: Activity
[14] = Cytotoxicity against human SW620 cells assessed as cell growth at 10^-8 M after 24 hrs by SRB assay; settings: SW-620, 24 h, read-out: Activity
[15] = Cytotoxicity against human HL-60(TB) cells assessed as cell growth at 10^-6 M after 24 hrs by SRB assay; settings: HL-60, 24 h, read-out: Activity
[16] = Cytotoxicity against human RPMI8226 cells assessed as cell growth at 10^-7 M after 24 hrs by SRB assay; settings: RPMI-8226, 24 h, read-out: Activity
[17] = Cytotoxicity against human HCT116 cells assessed as cell growth at 10^-7 M after 24 hrs by SRB assay; settings: HCT-116, 24 h, read-out: Activity
[18] = Cytotoxicity against human DU145 cells after 24 hrs by SRB assay; settings: DU-145, 24 h
NCI-H226 [19] = assay: Cytotoxicity against human NCI-H226 cells assessed as cell growth at 10^-7 M after 24 hrs by SRB assay; settings: NCI-H226, 24 h, read-out: Activity
[20] = Cytotoxicity against human UO31 cells assessed as cell growth at 10^-4 M after 24 hrs by SRB assay; settings: UO-31, 24 h, read-out: Activity
[21] = Cytotoxicity against human RXF393 cells assessed as cell growth at 10^-8 M after 24 hrs by SRB assay; settings: RXF 393, 24 h, read-out: Activity
[22] = Cytotoxicity against human RPMI8226 cells assessed as cell growth at 10^-4 M after 24 hrs by SRB assay; settings: RPMI-8226, 24 h, read-out: Activity
NCI-H23 = assay: Cytotoxicity against human NCI-H23 cells after 24 hrs by SRB assay; settings: NCI-H23, 24 h
[23] = Cytotoxicity against human BT549 cells assessed as cell growth at 10^-5 M after 24 hrs by SRB assay; settings: BT-549, 24 h, read-out: Activity
[24] = Cytotoxicity against human RPMI8226 cells assessed as cell growth at 10^-5 M after 24 hrs by SRB assay; settings: RPMI-8226, 24 h, read-out: Activity
SK-MEL-5 = assay: Cytotoxicity against human SK-MEL-5 cells assessed as cell growth at 10^-6 M after 24 hrs by SRB assay; settings: SK-MEL-5, 24 h, read-out: Activity
[25] = Cytotoxicity against human OVCAR5 cells assessed as cell growth at 10^-6 M after 24 hrs by SRB assay; settings: OVCAR-5, 24 h, read-out: Activity
NCI-H460 [26] = assay: Cytotoxicity against human NCI-H460 cells assessed as cell growth at 10^-5 M after 24 hrs by SRB assay; settings: NCI-H460, 24 h, read-out: Activity
[27] = Cytotoxicity against human PC3 cells after 24 hrs by SRB assay; settings: PC-3, 24 h
NCI-H226 [28] = assay: Cytotoxicity against human NCI-H226 cells assessed as cell growth at 10^-5 M after 24 hrs by SRB assay; settings: NCI-H226, 24 h, read-out: Activity
K562 [29] = assay: Cytotoxicity against human K562 cells after 24 hrs by SRB assay; settings: K562, 24 h
[30] = Cytotoxicity against human RXF393 cells assessed as cell growth at 10^-4 M after 24 hrs by SRB assay; settings: RXF 393, 24 h, read-out: Activity
SK-MEL-28 = assay: Cytotoxicity against human SK-MEL-28 cells assessed as cell growth at 10^-7 M after 24 hrs by SRB assay; settings: SK-MEL-28, 24 h, read-out: Activity
[31] = read-out: LC50 (the source's name)
[32] = read-out: pLC50 (the source's name) (converted)

Which growth at 0.01 µM [1] does the source give for `O=C(Nc1cc(-c2cccnc2)nc(NCCCN2CCOCC2)n1)c1cc(Br)cc(C(F)(F)F)c1` here?
Its growth at 0.01 µM is 94%.

What about the GI50 ([2]; read-out: GI50) of the same compound?
Its GI50 is 2.71 µM.

What about the CC50 [2, 31] of the same compound?
Its CC50 is 32.8 µM.

And the TGI ([2]; read-out: TGI)?
Its TGI is 9.98 µM.

And the GI50 ([2]; read-out: pGI50 (converted))?
The GI50 was 2.69 µM.

And the CC50 [2, 32]?
The CC50 was 33.1 µM.

And the TGI ([2]; read-out: pTGI (converted))?
Its TGI is 10 µM.

What about the growth at 10 µM [3] of the same compound?
Its growth at 10 µM is -61%.

And the growth at 0.1 µM (MDA-MB-435)?
Its growth at 0.1 µM is 92%.

What about the growth at 1 µM (HT-29) of the same compound?
Its growth at 1 µM is 94%.

What about the growth at 1 µM [4] of the same compound?
The growth at 1 µM was 92%.

And the growth at 10 µM [5]?
Its growth at 10 µM is -7%.

What about the growth at 100 µM [6] of the same compound?
The growth at 100 µM was -87%.

And the growth at 0.1 µM [7]?
Its growth at 0.1 µM is 98%.

What about the growth at 0.01 µM [8] of the same compound?
The growth at 0.01 µM was 95%.

What about the growth at 0.1 µM (M14 [9]) of the same compound?
Its growth at 0.1 µM is 95%.

What about the growth at 0.01 µM (NCI-H322M) of the same compound?
The growth at 0.01 µM was 98%.

What about the growth at 0.1 µM (NCI-H460 [10]) of the same compound?
The growth at 0.1 µM was 100%.

What about the growth at 0.01 µM (K562 [11]) of the same compound?
The growth at 0.01 µM was 107%.

And the growth at 10 µM [12]?
Its growth at 10 µM is -66%.

And the growth at 0.01 µM (M14 [13])?
The growth at 0.01 µM was 94%.

And the growth at 0.01 µM [14]?
Its growth at 0.01 µM is 98%.

What about the growth at 1 µM [15] of the same compound?
Its growth at 1 µM is 88%.

And the growth at 0.1 µM [16]?
Its growth at 0.1 µM is 104%.

And the growth at 0.1 µM [17]?
The growth at 0.1 µM was 107%.

And the GI50 ([18]; read-out: GI50)?
The GI50 was 6.7 µM.

What about the CC50 [18, 31] of the same compound?
Its CC50 is 43.7 µM.

And the TGI ([18]; read-out: TGI)?
The TGI was 19.1 µM.

And the GI50 ([18]; read-out: pGI50 (converted))?
The GI50 was 6.76 µM.

What about the CC50 [18, 32] of the same compound?
The CC50 was 43.7 µM.

What about the TGI ([18]; read-out: pTGI (converted)) of the same compound?
The TGI was 19.1 µM.

And the growth at 0.1 µM (NCI-H226 [19])?
The growth at 0.1 µM was 93%.

And the growth at 100 µM [20]?
The growth at 100 µM was -90%.

What about the growth at 0.01 µM [21] of the same compound?
Its growth at 0.01 µM is 99%.

What about the growth at 100 µM [22] of the same compound?
The growth at 100 µM was -24%.

And the GI50 (NCI-H23; read-out: GI50)?
Its GI50 is 3.55 µM.

And the CC50 (NCI-H23; [31])?
Its CC50 is 46.1 µM.

And the TGI (NCI-H23; read-out: TGI)?
Its TGI is 15 µM.

And the GI50 (NCI-H23; read-out: pGI50 (converted))?
Its GI50 is 3.55 µM.

And the CC50 (NCI-H23; [32])?
Its CC50 is 45.7 µM.

What about the TGI (NCI-H23; read-out: pTGI (converted)) of the same compound?
Its TGI is 15.1 µM.

What about the growth at 10 µM [23] of the same compound?
Its growth at 10 µM is 19%.

What about the growth at 10 µM [24] of the same compound?
Its growth at 10 µM is -1%.

And the growth at 1 µM (SK-MEL-5)?
Its growth at 1 µM is 91%.

And the growth at 1 µM [25]?
Its growth at 1 µM is 92%.

What about the growth at 10 µM (NCI-H460 [26]) of the same compound?
The growth at 10 µM was -5%.

What about the GI50 ([27]; read-out: GI50) of the same compound?
The GI50 was 4.03 µM.

And the CC50 [27, 31]?
Its CC50 is 42.7 µM.

What about the TGI ([27]; read-out: TGI) of the same compound?
The TGI was 15.7 µM.

What about the GI50 ([27]; read-out: pGI50 (converted)) of the same compound?
The GI50 was 4.07 µM.

And the CC50 [27, 32]?
Its CC50 is 42.7 µM.

And the TGI ([27]; read-out: pTGI (converted))?
The TGI was 15.8 µM.

And the growth at 10 µM (NCI-H226 [28])?
Its growth at 10 µM is 49%.

What about the GI50 (K562 [29]; read-out: GI50) of the same compound?
The GI50 was 2.81 µM.

What about the CC50 (K562 [29]; [31]) of the same compound?
The CC50 was > 100 µM.

And the TGI (K562 [29]; read-out: TGI)?
The TGI was 21.7 µM.

And the GI50 (K562 [29]; read-out: pGI50 (converted))?
Its GI50 is 2.82 µM.

What about the CC50 (K562 [29]; [32]) of the same compound?
Its CC50 is > 100 µM.

And the TGI (K562 [29]; read-out: pTGI (converted))?
Its TGI is 21.9 µM.

What about the growth at 100 µM [30] of the same compound?
The growth at 100 µM was -86%.

What about the growth at 0.1 µM (SK-MEL-28) of the same compound?
Its growth at 0.1 µM is 91%.

Source: ChEMBL document CHEMBL3774345, “Synthesis of new diarylamides with pyrimidinyl pyridine scaffold and evaluation of their anti-proliferative effect on cancer cell lines” (Bioorg Med Chem Lett, 2016)
